Data from patent US11028077B2, “Crystalline pharmaceutical and methods of preparation and use thereof” (NOVARTIS PHARMACEUTICALS CORPORATION, priority 2008, dated 2021).
Several values for one entry are separate records, joined by “and”; a condition that tells them apart may be missing. Equal values may be shown once. Read-outs that look alike come from different tables or passages of the source.

What was measured:
[1] = rabbit, in vivo, topical or ocular, 0.35 mg
[2] = test system: human mononuclear cells (PBMC) stimulated with staphylococcal enterotoxin B (SEB); assay: cells; assay type: cell-based
[3] = test system: SEB stimulated IL-2 release in whole human blood; assay: cells; assay type: cell-based; conditions: read-out: IC50, inhibition of SEB stimulated IL-2 release
[4] = Plasma PK after single IV bolus dose in rats; assay type: in vivo, rat
[5] = test system: Keratoconjunctivitis Sicca (KCS); assay: Canine keratoconjunctivitis sicca (KCS) study; assay type: in vivo, dog
Excerpt: If dogs had been treated with topical CsA or tacrolimus in the previous six months, they were not enrolled. […] Animals were subjected to an ocular examination once during the initial visit and during five visits over sixteen weeks of the study (Weeks, 2, 4, 8, 12 and 16). The last OE was approximately four weeks after the last dose of the compound of Formula I and after one month of CsA treatment. The adnexa and anterior portions of both eyes were examined using an indirect opthalmoscope. The eyes were dilated with a mydriatic when applicable, to allow evaluation of the lens and fundus, including the retina. An evaluation using a modified McDonald-Shaddock scoring system was performed in conjunction with the slitlamp ocular examinations at each interval. Tears were measured using STT strips during the initial visit and each of the five follow-up visits on Weeks 2, 4, 8, 12 and 16. One strip of STT paper was used for each eye for each interval. […] The length, in mm, of wetting below the notch of the paper was recorded. Fluorescein and rose bengal staining was performed at the each of the initial and follow up examinations. Intraocular pressure measurements (IOPs) were performed using a Tono-Pet Vet® in conjunction with each of the OEs. Digital ocular images were taken before and after staining (with fluorescein and rose bengal) during each of the OEs. Conjunctival biopsies were taken at the initial (pretreatment) visit and the Week 12 visit. The second biopsy was taken more lateral (approx. 1 mm) to the initial biopsy. Following appropriate preparation a small conjunctival biopsy was taken from the ventral fornix of each eye.

rabbits = assay: 13-week ocular toxicity study in rabbits with 4-week recovery (toxicity and TK); conditions: rabbits (3%)
[6] = test system: cell attachment and SEB IL-2 release; assay: cells; assay type: cell-based
[7] = Single dose ADME study with [14C]-compound in dogs; assay type: in vivo; conditions: dog, for 16 hrs
Excerpt: No differences in results from male and female dogs were observed.

Solubility studies = assay type: physicochemical
[8] = single IV bolus 30.0 mg/kg, from rat safety pharmacology study

In the case of `CS(=O)(=O)c1cccc(C[C@H](NC(=O)c2c(Cl)cc3c(c2Cl)CCN(C(=O)c2ccc4ccoc4c2)C3)C(=O)O)c1` [compound of Formula I], the “Mean tear AUC” value [1] is reported as 18931 ng·h/mL, the EC50 [2] is reported as no more than 0.15 µM and the EC50 ([2]; read-out: EC50 Cytokine Release GM-CSF) is reported as 0.545 µM. For the same compound, the EC50 ([2]; read-out: EC50 Cytokine Release IFNγ) was 0.0016 µM, the EC50 ([2]; read-out: EC50 Cytokine Release IL-1α) was 0.24 µM and the EC50 ([2]; read-out: EC50 Cytokine Release IL-1β) was 0.36 µM. It also gave an EC50 ([2]; read-out: EC50 Cytokine Release IL-2) of 0.0018 µM, an EC50 ([2]; read-out: EC50 Cytokine Release IL-3) of 52.2 µM and an EC50 ([2]; read-out: EC50 Cytokine Release IL-4) of 0.143 µM. For the same compound, the EC50 ([2]; read-out: EC50 Cytokine Release IL-5) was 0.11 µM, the EC50 ([2]; read-out: EC50 Cytokine Release IL-6) was 43.5 µM and the EC50 ([2]; read-out: EC50 Cytokine Release IL-10) was 0.147 µM. For the same compound, the EC50 ([2]; read-out: EC50 Cytokine Release IL-12p40) was greater than 1000 µM, the EC50 ([2]; read-out: EC50 Cytokine Release IL-13) was 0.36 µM and the EC50 ([2]; read-out: EC50 Cytokine Release IP-10) was 1.16 µM. For the same compound, the EC50 ([2]; read-out: EC50 Cytokine Release MCP-1) was 0.005 µM, the EC50 ([2]; read-out: EC50 Cytokine Release MIP-1α) was 0.02 µM and the EC50 ([2]; read-out: EC50 Cytokine Release TNF-α) was 0.076 µM. The IC50 [3] was 0.069 µM, the AUC0-n ([4]; single IV bolus 10.0 mg/kg) was 728 ng·h/mL and the CL ([4]; single IV bolus 10.0 mg/kg) was 173 mL/min/kg. The Cmax ([4]; single IV bolus 10.0 mg/kg) was 1056 ng/mL, the MRT ([4]; single IV bolus 10.0 mg/kg) was 0.920 h and the T1/2 ([4]; single IV bolus 10.0 mg/kg) was 3.76 h. It also gave a Vss ([4]; single IV bolus 10.0 mg/kg) of 9.56 L/kg, an AUC0-n [4, 8] of 2345.5 ng·h/mL and a Cmax [4, 8] of 5117.3 ng/mL. The “Schirmer Tear Test (OS), individual dogs” value ([5]; Week 1, left eye, 1% solution, 0.35 mg/eye TID) was 9 mm (2×) and 0 mm (3×) and 7 mm, the “Schirmer Tear Test (OD), individual dogs” value ([5]; Week 1, right eye, 1% solution, 0.35 mg/eye TID) was 8 mm (2×) and 6 mm (2×) and 0 mm and 5 mm and the “Schirmer Tear Test (OS), individual dogs” value ([5]; Week 2, left eye, 1% solution TID) was 4 mm and 0 mm (2×) and 14 mm and 3 mm and 8 mm. For the same compound, the “Schirmer Tear Test (OD), individual dogs” value ([5]; Week 2, right eye, 1% solution TID) was 10 mm and 2 mm (2×) and 11 mm (3×), the “Schirmer Tear Test (OS), individual dogs” value ([5]; Week 4, left eye, 1% solution TID) was 14 mm (2×) and 0 mm (2×) and 7 mm and 5 mm and the “Schirmer Tear Test (OD), individual dogs” value ([5]; Week 4, right eye, 1% solution TID) was 15 mm and 2 mm and 0 mm and 5 mm and 10 mm (2×). The “Schirmer Tear Test (OS), individual dogs” value ([5]; Week 8, left eye, 1% solution TID) was 8 mm (2×) and 0 mm and 2 mm and 17 mm and 6 mm, the “Schirmer Tear Test (OD), individual dogs” value ([5]; Week 8, right eye, 1% solution TID) was 17 mm and 1 mm and 8 mm and 7 mm (2×) and 11 mm and the “Schirmer Tear Test (OS), individual dogs” value ([5]; Week 12, left eye, 1% solution TID) was 8 mm (2×) and 3 mm and 7 mm and 15 mm and 4 mm. The “Schirmer Tear Test (OD), individual dogs” value ([5]; Week 12, right eye, 1% solution TID) was 16 mm and 0 mm and 8 mm and 7 mm and 13 mm and 9 mm, the “Schirmer Tear Test (OS), individual dogs” value ([5]; Week 16, left eye, four weeks after last dose and after one month of CsA 0.2% ointment) was 17 mm and 3 mm and 5 mm and 16 mm and 7 mm and 19 mm and the “Schirmer Tear Test (OD), individual dogs” value ([5]; Week 16, right eye, four weeks after last dose and after one month of CsA 0.2% ointment) was 18 mm and 12 mm and 8 mm (3×) and 22** mm. The “Maximum-Minimum Analysis, maximal change in STT, OS, individual dogs” value ([5]; Weeks 1-12, left eye) was 7 mm (2×) and 11 mm and 3 mm and 10 mm and 6 mm, the “Maximum-Minimum Analysis, maximal change in STT, OD, individual dogs” value ([5]; Weeks 1-12, right eye) was 3 mm and 8 mm (3×) and −4 mm and 5 mm and the “average improvement in STT, all 12 eyes” value ([5]; during the treatment period (12 weeks)) was 4 mm. For the same compound, the “Histopathological evaluation of conjunctival biopsies taken before and after treatment” value ([5]; pretreatment vs Week 12) was “attenuation of lymphocyte accumulation”, the “mean change in Schirmer test score over pretreatment” value ([5]; week 12) was “Significant improvement” and the NOAEL (rabbits) was 1.05 mg/eye/3× per day. For the same compound, the IC50 [6] was 0.002 µM, the levels in conjunctiva/cornea [7] was “greater than 1 micromolar” and the solubility (Solubility studies; ethanol/glycol/transcutol solution) was 10 % (w/w). For the same compound, the solubility (Solubility studies; water/glycol/transcutol solution) was 2 % (w/w).
